This is an account of results in US11530216B2, “Deuterated colony stimulating factor-1 receptor (CSF-1R) inhibitors” (Genzyme Corporation, priority 2020, dated 2022).

Read-outs that look alike come from different tables or passages of the source.

Data set [1] can be described thus: Human liver cytosol intrinsic clearance. In kind it is in vitro ADME. The following applies: for CLint scaled at 1 μM / microsomal CLint at 1 μM: human, cytosol. As for the experimental part: (§1) Incubations were performed in 1 mg/mL human liver cytosol with high aldehyde oxidase (AO)/xanthine oxidase (XO) activity or 2.5 mg/mL human liver S-9 fraction with high AO/XO activity at 1 μM concentration of test compound in duplicate, and the concentration-time course of test compound depletion was determined after withdrawing samples from the incubation at assay time points followed by liquid chromatography with tandem mass spectrometry analysis. An organic solvent was used to terminate incubations.
(§2) These available known AO substrates along with the test compounds were analyzed using three in vitro systems (pooled human liver cytosol, liver S-9 fractions and human hepatocytes isolated from livers perfused with HTK media). Scaled unbound intrinsic clearances were calculated for the test compounds/new chemical entities and were compared to the in vivo unbound intrinsic clearances of the known AO substrates.

Data set [2] can be described thus: Human hepatocyte intrinsic clearance. In kind it is in vitro ADME. To be noted: for CLint scaled at 1 μM / hepatocyte CLint at 1 μM: human, hepatocytes. As for the experimental part:
Incubations were performed in 0.5 million hepatocytes cells/mL at 1 μM concentration of test compound in duplicate with rat, human, dog, monkey, or mouse hepatocytes, and the concentration-time course of test compound depletion was determined after withdrawing samples from the incubation at assay time points followed by liquid chromatography with tandem mass spectrometry analysis. An organic solvent was used to terminate incubations.
as §2

Data set [3] can be described thus: Human liver S-9 intrinsic clearance. To be noted: for CLint scaled at 1 μM / microsomal CLint at 1 μM: human; for CLint scaled at 1 μM: s9; for Human Liver S-9 Intrinsic Clearance _1 / Human Liver S-9 Intrinsic Clearance _2: 2.5 mg/mL S-9, 1 μM. In kind it is in vitro ADME. As for the experimental part: as §1, §2
For data set [4] the following is noted: known AO substrates, human, literature; cited from earlier work.
Where [5] appears, read: Human Liver Cytosol Intrinsic Clearance _1.
The mark [6] stands for this setting: Human Liver Cytosol Intrinsic Clearance _2.
Setting [7] is: 1 mg/mL cytosol, 1 μM, replicate 1.
Where [8] appears, read: 1 mg/mL cytosol, 1 μM, replicate 2.
The mark [9] stands for this setting: 1 mg/mL cytosol, 1 μM, replicate 1, read-out: Human Liver Cytosol Intrinsic Clearance _1.
[10] abbreviates: 1 mg/mL cytosol, 1 μM, replicate 2, read-out: Human Liver Cytosol Intrinsic Clearance _2.
[11] abbreviates: scaled data, read-out: Human Liver Cytosol in vitro scaled Intrinsic Clearance.
Where [12] appears, read: raw data, AO calibration set, read-out: Human Hepatocytes Intrinsic Clearance.
Setting [13] is: scaled data, read-out: Human Hepatocytes in vitro scaled Intrinsic Clearance.
[14] abbreviates: s9, 2.5 mg/mL S-9, 1 μM, replicate 1, read-out: Human Liver S-9 Intrinsic Clearance _1.
[15] abbreviates: s9, 2.5 mg/mL S-9, 1 μM, replicate 2, read-out: Human Liver S-9 Intrinsic Clearance _2.
Where [16] appears, read: scaled data, read-out: Human Liver S-9 in vitro scaled Intrinsic Clearance.

Turning to `[2H]c1ccc2ncn(Cc3cc(OC)c4c(c3)O[C@@H](C)[C@H](c3ccc(OC)nc3)O4)c2n1` (racemic) [Compound 1, (+/−)-3-(((trans)-8-methoxy-2-(6-methoxypyridin-3-yl)-3-methyl-2,3-dihydrobenzo[b][1,4]dioxin-6-yl)methyl)-3H-imidazo[4,5-b]pyridine-5-d], the CLint scaled at 1 μM in data set [1] is 6.9 mL/min/kg; in data set [2], 26.2 mL/min/kg. The microsomal CLint at 1 μM in data set [1] (setting [5]) stood at 3.4 µL/min/mg; in data set [1] (setting [6]), 3.3 µL/min/mg. Moreover, the hepatocyte CLint at 1 μM in data set [2] came out at 10.3 µL/min/1e6 cells.

With `[2H]c1ccc2nc([2H])n(Cc3cc(OC)c4c(c3)O[C@@H](C)[C@H](c3ccc(OC)nc3)O4)c2n1` (racemic) [Compound 2, (+/−)-3-(((trans)-8-methoxy-2-(6-methoxypyridin-3-yl)-3-methyl-2,3-dihydrobenzo[b][1,4]dioxin-6-yl)methyl)-3H-imidazo[4,5-b]pyridine-2,5-d2], the CLint scaled at 1 μM in data set [1] worked out at 4.3 mL/min/kg; in data set [2] it was 16.2 mL/min/kg. The values for the microsomal CLint at 1 μM in data set [1] (setting [5]) and in data set [1] (setting [6]) were 1.5 µL/min/mg and 1.7 µL/min/mg, respectively. For the same compound, the hepatocyte CLint at 1 μM in data set [2] worked out at 6.36 µL/min/1e6 cells.

Consider `[2H]c1nc2cccnc2n1C([2H])([2H])c1cc(OC)c2c(c1)O[C@@H](C)[C@H](c1ccc(OC)nc1)O2` (racemic) [Compound 4, (+/−)-3-(((trans)-8-methoxy-2-(6-methoxypyridin-3-yl)-3-methyl-2,3-dihydrobenzo[b][1,4]dioxin-6-yl)methyl-d2)-3H-imidazo[4,5-b]pyridine-2-d], for which the CLint scaled at 1 μM in data set [1] was 3.4 mL/min/kg; in data set [2] it was 19 mL/min/kg. The microsomal CLint at 1 μM in data set [1] (setting [5]) was determined as 1.2 µL/min/mg; in data set [1] (setting [6]) it was 2.1 µL/min/mg. Further, the hepatocyte CLint at 1 μM in data set [2] turned out to be 7.45 µL/min/1e6 cells.

In the case of `[2H]c1nc2cccnc2n1Cc1cc(OC)c2c(c1)O[C@H](C)[C@@H](c1ccc(OC)nc1)O2` [Compound 5, 3-(((2R,3R)-8-methoxy-2-(6-methoxypyridin-3-yl)-3-methyl-2,3-dihydrobenzo[b][1,4]dioxin-6-yl)methyl)-3H-imidazo[4,5-b]pyridine-2-d], the CLint scaled at 1 μM worked out at 2.2 mL/min/kg in data set [1], 19.7 mL/min/kg in data set [2] and 3.6 mL/min/kg in data set [3]. Further, the microsomal CLint at 1 μM in data set [1] (setting [5]) was 0.7 µL/min/mg; in data set [1] (setting [6]), 1.4 µL/min/mg; in data set [3] (s9, Human Liver S-9 Intrinsic Clearance _1), < 1.1 µL/min/mg; in data set [3] (s9, Human Liver S-9 Intrinsic Clearance _2), < 1.1 µL/min/mg. For the same compound, the hepatocyte CLint at 1 μM in data set [2] worked out at 7.74 µL/min/1e6 cells.

With `CN(C)CCNC(=O)c1cccc2cc3ccccc3nc12` [DACA], in data set [4], the “Estimated Free in vivo Intrinsic Clearance (Ref)” value (“Estimated Free” below) is 3600. In data set [1] (setting [7]), the “Human Liver Cytosol Intrinsic Clearance _1” value is 46.2 μL/min/mg protein. Besides, the “Human Liver Cytosol Intrinsic Clearance _2” value in data set [1] (setting [8]) was determined as 46.8 μL/min/mg protein. Further, the “Human Liver Cytosol in vitro scaled Intrinsic Clearance” value in data set [1] (scaled data) amounted to 96.5 mL/min/kg. Also, the “Human Hepatocytes Intrinsic Clearance” value in data set [2] (raw data, AO calibration set) is 49.1 μL/min/10^6 cells. Moreover, the “Human Hepatocytes in vitro scaled Intrinsic Clearance” value in data set [2] (scaled data) was 125 mL/min/kg. Further, in data set [3] (replicate 1), the “Human Liver S-9 Intrinsic Clearance _1” value stood at 19.0 μL/min/mg protein. Further, the “Human Liver S-9 Intrinsic Clearance _2” value in data set [3] (replicate 2) was found to be 17.7 μL/min/mg protein. The “Human Liver S-9 in vitro scaled Intrinsic Clearance” value in data set [3] (scaled data) is 56.5 mL/min/kg.

Regarding `Nc1nc(OCc2ccccc2)c2nc[nH]c2n1` [O6-benzylguanine], in data set [4], the “Estimated Free” value was 360. In addition, the “Human Liver Cytosol Intrinsic Clearance _1” value in data set [1] (setting [7]) came to 5.6 μL/min/mg protein. Further, the “Human Liver Cytosol Intrinsic Clearance _2” value in data set [1] (setting [8]) is listed as 4.9 μL/min/mg protein. In addition, the “Human Liver Cytosol in vitro scaled Intrinsic Clearance” value in data set [1] (scaled data) turned out to be 10.7 mL/min/kg. Further, in data set [2] (raw data, AO calibration set), the “Human Hepatocytes Intrinsic Clearance” value amounted to 13.6 μL/min/10^6 cells. Also, the “Human Hepatocytes in vitro scaled Intrinsic Clearance” value in data set [2] (scaled data) is 34.6 mL/min/kg. In addition, in data set [3] (replicate 1), the “Human Liver S-9 Intrinsic Clearance _1” value was found to be 6.66 μL/min/mg protein. In addition, in data set [3] (replicate 2), the “Human Liver S-9 Intrinsic Clearance _2” value was determined as 5.97 μL/min/mg protein. In data set [3] (scaled data), the “Human Liver S-9 in vitro scaled Intrinsic Clearance” value worked out at 19.5 mL/min/kg.

As for `CC[C@H]1OC(=O)[C@H](C)C(=O)[C@H](C)[C@@H](O[C@@H]2O[C@H](C)C[C@H](N(C)C)[C@H]2O)[C@](C)(OC)C[C@@H](C)C(=O)[C@H](C)[C@H]2N(C3CN([C@H](C)c4ccnc5ncccc45)C3)C(=O)O[C@]12C` [PF-945863], in data set [4], the “Estimated Free” value is reported as 170. The “Human Liver Cytosol Intrinsic Clearance _1” value in data set [1] (setting [7]) is given as 8.2 μL/min/mg protein. The “Human Liver Cytosol Intrinsic Clearance _2” value in data set [1] (setting [8]) is 6.9 μL/min/mg protein. For the same compound, the “Human Liver Cytosol in vitro scaled Intrinsic Clearance” value in data set [1] (scaled data) was determined as 15.4 mL/min/kg. Also, the “Human Hepatocytes Intrinsic Clearance” value in data set [2] (raw data, AO calibration set) was 10.7 μL/min/10^6 cells. The “Human Hepatocytes in vitro scaled Intrinsic Clearance” value in data set [2] (scaled data) is 27.2 mL/min/kg. Further, the “Human Liver S-9 Intrinsic Clearance _1” value in data set [3] (replicate 1) stood at 6.78 μL/min/mg protein. For the same compound, in data set [3] (replicate 2), the “Human Liver S-9 Intrinsic Clearance _2” value was 6.22 μL/min/mg protein. In addition, the “Human Liver S-9 in vitro scaled Intrinsic Clearance” value in data set [3] (scaled data) was 20.1 mL/min/kg.

Take `OCCn1cc(-c2cnc3nnn(Cc4ccc5ncccc5c4)c3n2)cn1` [PF-4217903]: the “Estimated Free” value in data set [4] is reported as 46. For the same compound, the microsomal CLint at 1 μM in data set [1] (setting [9]) is < 0.7 µL/min/mg; in data set [1] (setting [10]), < 0.7 µL/min/mg; in data set [3] (setting [14]) it was < 1.1 µL/min/mg; in data set [3] (setting [15]) it was < 1.1 µL/min/mg. The CLint scaled at 1 μM is < 1.5 mL/min/kg in data set [1] (setting [11]), 10.4 mL/min/kg in data set [2] (setting [13]) and < 3.4 mL/min/kg in data set [3] (setting [16]). For the same compound, the hepatocyte CLint at 1 μM in data set [2] (setting [12]) turned out to be 4.08 µL/min/1e6 cells.

For the compound `CCNC(=O)OC1CCN(c2nncc3cc(OC)c(OC)cc23)CC1` [carbazeran], the “Estimated Free” value in data set [4] is reported as 13000.

In the case of `CN(Cc1cnc2nc(N)nc(N)c2n1)c1ccc(C(=O)N[C@@H](CCC(=O)O)C(=O)O)cc1` [methotrexate], in data set [4], the “Estimated Free” value was 0.44. Further, the “Human Liver Cytosol Intrinsic Clearance _1” value in data set [1] (setting [7]) is <0.7 μL/min/mg protein. The “Human Liver Cytosol Intrinsic Clearance _2” value in data set [1] (setting [8]) was <0.7 μL/min/mg protein. In addition, the “Human Liver Cytosol in vitro scaled Intrinsic Clearance” value in data set [1] (scaled data) is <1.5 mL/min/kg. In addition, in data set [2] (raw data, AO calibration set), the “Human Hepatocytes Intrinsic Clearance” value is given as <2.7 μL/min/10^6 cells. In data set [2] (scaled data), the “Human Hepatocytes in vitro scaled Intrinsic Clearance” value is <6.9 mL/min/kg. Also, in data set [3] (replicate 1), the “Human Liver S-9 Intrinsic Clearance _1” value is recorded as <1.1 μL/min/mg protein. Also, in data set [3] (replicate 2), the “Human Liver S-9 Intrinsic Clearance _2” value is <1.1 μL/min/mg protein. In data set [3] (scaled data), the “Human Liver S-9 in vitro scaled Intrinsic Clearance” value was <3.4 mL/min/kg.

For `CCN(C(C)=O)c1cccc(-c2ccnc3c(C#N)cnn23)c1` [zaleplon], in data set [4], the “Estimated Free” value was 65. Further, the microsomal CLint at 1 μM in data set [1] (setting [9]) was determined as 3.1 µL/min/mg; in data set [1] (setting [10]), 3.4 µL/min/mg; in data set [3] (setting [14]), 2.11 µL/min/mg; in data set [3] (setting [15]), 3.32 µL/min/mg. Also, the CLint scaled at 1 μM in data set [1] (setting [11]) amounted to 6 mL/min/kg; in data set [2] (setting [13]) it was 19.2 mL/min/kg; in data set [3] (setting [16]), 7.1 mL/min/kg. Also, the hepatocyte CLint at 1 μM in data set [2] (setting [12]) is 7.53 µL/min/1e6 cells.

On to `N=C(N)NC(=O)c1cnn(-c2cccc3ncccc23)c1C1CC1` [zoniporide], for which, in data set [4], the “Estimated Free” value is given as 180. In addition, the CLint scaled at 1 μM is 12.4 mL/min/kg in data set [1], 33.8 mL/min/kg in data set [2] and 18.6 mL/min/kg in data set [3]. This compound had a hepatocyte CLint at 1 μM in data set [2] of 13.3 µL/min/1e6 cells.
